Measurements reported in article PMC8213057, “Targeting ALK2: An Open Science Approach to Developing Therapeutics for the Treatment of Diffuse Intrinsic Pontine Glioma” (Journal of Medicinal Chemistry, 2020).

Assays:
FGFR4 = FGFR4 (Homo sapiens, UniProt P22455); test: biochemical; settings: read-out: % enzyme activity, 1 μM; Run 1, Run 2
CK1g1 = CK1g1 (Homo sapiens, UniProt Q9HCP0); settings: 1 μM; Run 1, Run 2
NIM1 = NIM1 (Homo sapiens, UniProt Q8IY84); test: biochemical; settings: read-out: % enzyme activity, 1 μM; Run 1, Run 2
NIM1, sequence (Q8IY84 whole entry): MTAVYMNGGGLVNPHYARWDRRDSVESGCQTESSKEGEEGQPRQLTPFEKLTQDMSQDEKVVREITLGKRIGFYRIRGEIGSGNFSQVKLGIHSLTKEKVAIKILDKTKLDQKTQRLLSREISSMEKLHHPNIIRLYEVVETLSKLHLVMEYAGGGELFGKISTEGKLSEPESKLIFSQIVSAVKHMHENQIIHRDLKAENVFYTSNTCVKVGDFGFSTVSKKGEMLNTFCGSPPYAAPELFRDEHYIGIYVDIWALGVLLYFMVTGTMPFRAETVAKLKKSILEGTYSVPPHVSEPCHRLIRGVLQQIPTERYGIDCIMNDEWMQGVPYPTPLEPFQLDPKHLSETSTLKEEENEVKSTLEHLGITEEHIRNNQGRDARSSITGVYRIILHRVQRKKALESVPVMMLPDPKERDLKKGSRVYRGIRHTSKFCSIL

ERBB4/HER4 = ERBB4/HER4 (Homo sapiens, UniProt Q15303); test: biochemical; settings: read-out: % enzyme activity, 1 μM; Run 1, Run 2
ERBB4/HER4, sequence (Q15303 26-1308): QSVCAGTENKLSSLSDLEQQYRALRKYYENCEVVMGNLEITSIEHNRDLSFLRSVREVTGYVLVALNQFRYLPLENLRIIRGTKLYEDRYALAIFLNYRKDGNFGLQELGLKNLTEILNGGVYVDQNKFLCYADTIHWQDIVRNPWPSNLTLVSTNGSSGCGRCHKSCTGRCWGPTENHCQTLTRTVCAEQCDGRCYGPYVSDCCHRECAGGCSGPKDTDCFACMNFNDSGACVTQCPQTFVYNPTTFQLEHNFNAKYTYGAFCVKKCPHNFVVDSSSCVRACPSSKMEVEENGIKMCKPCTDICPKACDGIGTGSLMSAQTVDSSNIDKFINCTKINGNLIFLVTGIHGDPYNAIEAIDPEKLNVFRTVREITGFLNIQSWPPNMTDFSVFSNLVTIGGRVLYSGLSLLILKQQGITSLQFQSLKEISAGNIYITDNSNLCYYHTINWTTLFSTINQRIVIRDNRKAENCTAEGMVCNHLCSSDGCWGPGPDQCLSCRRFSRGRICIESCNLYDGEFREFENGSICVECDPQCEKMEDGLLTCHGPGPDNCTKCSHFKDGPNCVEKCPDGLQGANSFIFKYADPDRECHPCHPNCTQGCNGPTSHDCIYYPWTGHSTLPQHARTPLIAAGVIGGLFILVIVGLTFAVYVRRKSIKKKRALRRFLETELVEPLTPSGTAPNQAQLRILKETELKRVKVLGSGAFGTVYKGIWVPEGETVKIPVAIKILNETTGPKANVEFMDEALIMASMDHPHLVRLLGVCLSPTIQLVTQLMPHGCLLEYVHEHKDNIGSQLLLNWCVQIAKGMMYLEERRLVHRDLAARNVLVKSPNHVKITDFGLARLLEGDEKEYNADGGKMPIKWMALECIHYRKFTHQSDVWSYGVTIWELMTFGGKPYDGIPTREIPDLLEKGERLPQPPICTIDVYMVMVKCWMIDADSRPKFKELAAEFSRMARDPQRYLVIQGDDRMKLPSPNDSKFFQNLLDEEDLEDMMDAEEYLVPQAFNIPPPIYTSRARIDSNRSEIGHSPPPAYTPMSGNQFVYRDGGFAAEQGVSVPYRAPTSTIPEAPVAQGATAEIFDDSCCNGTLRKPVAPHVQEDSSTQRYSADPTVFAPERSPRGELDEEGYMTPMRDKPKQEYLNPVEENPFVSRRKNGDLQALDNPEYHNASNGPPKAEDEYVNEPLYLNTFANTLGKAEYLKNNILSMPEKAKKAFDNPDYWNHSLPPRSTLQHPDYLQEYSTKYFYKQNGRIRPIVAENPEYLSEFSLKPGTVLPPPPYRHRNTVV

ROCK1 = ROCK1 (Homo sapiens, UniProt Q13464); test: biochemical; settings: read-out: % enzyme activity, 1 μM; Run 1, Run 2
ROCK1, sequence (Q13464 whole entry): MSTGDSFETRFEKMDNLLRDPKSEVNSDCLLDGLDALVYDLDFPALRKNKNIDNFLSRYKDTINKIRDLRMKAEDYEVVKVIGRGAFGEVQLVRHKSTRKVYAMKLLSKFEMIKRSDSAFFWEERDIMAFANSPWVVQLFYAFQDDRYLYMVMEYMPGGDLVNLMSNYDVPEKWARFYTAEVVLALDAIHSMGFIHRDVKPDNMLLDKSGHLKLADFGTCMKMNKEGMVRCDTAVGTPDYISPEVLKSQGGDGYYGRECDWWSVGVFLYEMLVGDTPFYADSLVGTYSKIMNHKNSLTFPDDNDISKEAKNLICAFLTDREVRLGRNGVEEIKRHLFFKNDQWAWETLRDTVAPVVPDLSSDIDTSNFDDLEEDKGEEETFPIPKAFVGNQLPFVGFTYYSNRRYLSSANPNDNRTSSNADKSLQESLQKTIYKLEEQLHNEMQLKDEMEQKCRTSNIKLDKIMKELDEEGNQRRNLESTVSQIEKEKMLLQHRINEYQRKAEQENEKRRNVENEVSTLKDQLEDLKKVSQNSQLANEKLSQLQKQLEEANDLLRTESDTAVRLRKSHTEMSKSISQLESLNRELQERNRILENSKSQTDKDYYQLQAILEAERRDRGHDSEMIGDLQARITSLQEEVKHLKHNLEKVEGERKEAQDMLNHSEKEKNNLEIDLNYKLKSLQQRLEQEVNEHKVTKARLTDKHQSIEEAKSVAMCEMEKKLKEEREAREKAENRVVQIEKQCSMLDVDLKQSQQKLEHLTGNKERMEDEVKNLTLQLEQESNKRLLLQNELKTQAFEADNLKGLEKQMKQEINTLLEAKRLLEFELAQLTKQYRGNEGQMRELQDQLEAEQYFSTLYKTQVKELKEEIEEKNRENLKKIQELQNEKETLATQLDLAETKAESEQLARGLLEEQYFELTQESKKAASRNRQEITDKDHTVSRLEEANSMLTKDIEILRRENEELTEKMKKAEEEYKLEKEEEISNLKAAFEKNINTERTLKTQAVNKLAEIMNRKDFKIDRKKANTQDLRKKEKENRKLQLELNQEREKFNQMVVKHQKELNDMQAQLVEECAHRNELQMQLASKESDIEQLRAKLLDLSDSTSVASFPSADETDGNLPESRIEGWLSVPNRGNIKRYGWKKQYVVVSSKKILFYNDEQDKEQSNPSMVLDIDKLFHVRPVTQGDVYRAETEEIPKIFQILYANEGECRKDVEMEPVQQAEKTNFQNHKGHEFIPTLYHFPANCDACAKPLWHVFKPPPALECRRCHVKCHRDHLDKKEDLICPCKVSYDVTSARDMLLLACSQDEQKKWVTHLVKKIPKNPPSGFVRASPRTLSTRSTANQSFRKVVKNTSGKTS

EPHB3 = biological target: T1, EPHB3 (Homo sapiens, UniProt P54753); settings: 1 μM; Run 1, Run 2
T1 sequence (P54753 34-998): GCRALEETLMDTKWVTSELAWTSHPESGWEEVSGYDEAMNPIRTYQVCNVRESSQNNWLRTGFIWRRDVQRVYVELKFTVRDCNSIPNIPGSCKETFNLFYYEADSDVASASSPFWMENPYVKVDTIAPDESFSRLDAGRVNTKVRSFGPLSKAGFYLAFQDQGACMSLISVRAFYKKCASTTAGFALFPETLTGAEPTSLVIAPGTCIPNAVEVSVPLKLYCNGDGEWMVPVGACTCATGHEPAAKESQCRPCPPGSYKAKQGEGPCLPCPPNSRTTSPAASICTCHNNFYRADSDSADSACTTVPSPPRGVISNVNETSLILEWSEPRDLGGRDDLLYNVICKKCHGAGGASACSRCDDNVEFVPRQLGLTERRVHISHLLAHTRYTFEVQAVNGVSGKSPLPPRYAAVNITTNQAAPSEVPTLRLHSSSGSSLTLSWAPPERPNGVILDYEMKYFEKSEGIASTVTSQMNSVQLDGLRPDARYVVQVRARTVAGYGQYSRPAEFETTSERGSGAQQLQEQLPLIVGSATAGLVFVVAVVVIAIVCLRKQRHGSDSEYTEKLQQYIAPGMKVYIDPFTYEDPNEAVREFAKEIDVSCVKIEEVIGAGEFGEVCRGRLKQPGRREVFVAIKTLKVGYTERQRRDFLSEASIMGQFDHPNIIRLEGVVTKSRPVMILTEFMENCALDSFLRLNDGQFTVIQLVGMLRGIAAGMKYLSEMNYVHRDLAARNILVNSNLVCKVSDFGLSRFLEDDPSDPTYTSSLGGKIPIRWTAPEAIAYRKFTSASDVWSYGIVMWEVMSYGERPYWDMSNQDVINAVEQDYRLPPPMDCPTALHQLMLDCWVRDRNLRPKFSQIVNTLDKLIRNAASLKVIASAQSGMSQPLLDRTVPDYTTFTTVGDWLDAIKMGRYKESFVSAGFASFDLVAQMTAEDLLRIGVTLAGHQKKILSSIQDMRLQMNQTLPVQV

EPHB1 = biological target: T2, EPHB1 (Homo sapiens, UniProt P54762); test: biochemical; settings: read-out: % enzyme activity, 1 μM; Run 1, Run 2
T2 sequence (P54762 18-984): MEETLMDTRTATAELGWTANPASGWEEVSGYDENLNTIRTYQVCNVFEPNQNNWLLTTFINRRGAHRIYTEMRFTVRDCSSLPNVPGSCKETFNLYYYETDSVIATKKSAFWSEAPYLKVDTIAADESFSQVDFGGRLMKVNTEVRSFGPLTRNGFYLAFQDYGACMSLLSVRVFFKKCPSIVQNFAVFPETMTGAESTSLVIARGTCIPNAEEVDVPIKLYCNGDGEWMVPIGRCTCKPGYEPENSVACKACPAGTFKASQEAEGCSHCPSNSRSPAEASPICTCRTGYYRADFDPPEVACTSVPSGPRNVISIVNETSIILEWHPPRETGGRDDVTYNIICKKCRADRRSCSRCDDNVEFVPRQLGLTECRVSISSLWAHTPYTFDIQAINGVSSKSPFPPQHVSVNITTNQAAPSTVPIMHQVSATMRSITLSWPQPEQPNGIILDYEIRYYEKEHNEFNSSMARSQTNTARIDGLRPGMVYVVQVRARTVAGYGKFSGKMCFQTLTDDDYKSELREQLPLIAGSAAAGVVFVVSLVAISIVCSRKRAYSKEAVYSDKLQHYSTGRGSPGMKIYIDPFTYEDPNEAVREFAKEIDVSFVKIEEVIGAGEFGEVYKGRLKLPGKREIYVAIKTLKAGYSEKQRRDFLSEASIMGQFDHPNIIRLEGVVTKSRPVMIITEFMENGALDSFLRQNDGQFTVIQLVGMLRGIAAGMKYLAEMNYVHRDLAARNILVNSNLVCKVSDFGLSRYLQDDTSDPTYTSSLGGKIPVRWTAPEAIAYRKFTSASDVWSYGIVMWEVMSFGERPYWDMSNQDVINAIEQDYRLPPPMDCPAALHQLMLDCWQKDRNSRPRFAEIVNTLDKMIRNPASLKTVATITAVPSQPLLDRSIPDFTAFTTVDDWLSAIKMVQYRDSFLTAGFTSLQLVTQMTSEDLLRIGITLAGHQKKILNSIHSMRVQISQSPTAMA

PRKX = biological target: T3, PRKX (Homo sapiens, UniProt P51817); test: biochemical; settings: read-out: % enzyme activity, 1 μM; Run 1, Run 2
T3 sequence (P51817 1-358): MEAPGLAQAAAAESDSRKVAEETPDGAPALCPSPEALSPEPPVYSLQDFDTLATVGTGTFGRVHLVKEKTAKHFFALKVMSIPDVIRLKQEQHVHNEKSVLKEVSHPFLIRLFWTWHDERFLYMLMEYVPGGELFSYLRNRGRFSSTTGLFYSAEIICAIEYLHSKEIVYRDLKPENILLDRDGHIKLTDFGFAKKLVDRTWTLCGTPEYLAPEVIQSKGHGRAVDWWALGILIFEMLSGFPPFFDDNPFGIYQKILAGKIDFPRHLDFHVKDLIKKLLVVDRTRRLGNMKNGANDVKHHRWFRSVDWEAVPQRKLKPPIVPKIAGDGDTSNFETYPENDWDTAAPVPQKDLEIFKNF

MYO3A = MYO3A (Homo sapiens, UniProt Q8NEV4); settings: 1 μM; Run 1, Run 2

FGFR4, sequence (P22455 22-802): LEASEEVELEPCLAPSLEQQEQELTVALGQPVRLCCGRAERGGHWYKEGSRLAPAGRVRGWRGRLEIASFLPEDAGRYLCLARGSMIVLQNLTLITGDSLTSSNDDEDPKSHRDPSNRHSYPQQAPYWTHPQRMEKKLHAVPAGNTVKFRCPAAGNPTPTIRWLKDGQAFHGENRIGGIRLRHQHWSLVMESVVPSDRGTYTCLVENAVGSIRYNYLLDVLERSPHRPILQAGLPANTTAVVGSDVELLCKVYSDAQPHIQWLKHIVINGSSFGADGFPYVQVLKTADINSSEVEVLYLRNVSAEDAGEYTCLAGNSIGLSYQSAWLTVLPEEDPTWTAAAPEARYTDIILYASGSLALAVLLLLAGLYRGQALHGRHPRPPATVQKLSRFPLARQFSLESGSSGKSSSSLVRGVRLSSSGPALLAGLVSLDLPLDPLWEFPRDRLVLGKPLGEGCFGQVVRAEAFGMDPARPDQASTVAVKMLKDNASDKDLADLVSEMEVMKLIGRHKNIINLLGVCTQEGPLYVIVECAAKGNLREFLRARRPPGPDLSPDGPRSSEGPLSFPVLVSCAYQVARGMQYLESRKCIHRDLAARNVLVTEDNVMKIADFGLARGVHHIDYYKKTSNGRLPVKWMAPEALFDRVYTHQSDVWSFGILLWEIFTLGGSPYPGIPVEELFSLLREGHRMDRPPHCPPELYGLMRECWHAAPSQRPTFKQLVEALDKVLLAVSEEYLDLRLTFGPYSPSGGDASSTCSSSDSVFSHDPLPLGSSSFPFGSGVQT
CK1g1, sequence (Q9HCP0 whole entry): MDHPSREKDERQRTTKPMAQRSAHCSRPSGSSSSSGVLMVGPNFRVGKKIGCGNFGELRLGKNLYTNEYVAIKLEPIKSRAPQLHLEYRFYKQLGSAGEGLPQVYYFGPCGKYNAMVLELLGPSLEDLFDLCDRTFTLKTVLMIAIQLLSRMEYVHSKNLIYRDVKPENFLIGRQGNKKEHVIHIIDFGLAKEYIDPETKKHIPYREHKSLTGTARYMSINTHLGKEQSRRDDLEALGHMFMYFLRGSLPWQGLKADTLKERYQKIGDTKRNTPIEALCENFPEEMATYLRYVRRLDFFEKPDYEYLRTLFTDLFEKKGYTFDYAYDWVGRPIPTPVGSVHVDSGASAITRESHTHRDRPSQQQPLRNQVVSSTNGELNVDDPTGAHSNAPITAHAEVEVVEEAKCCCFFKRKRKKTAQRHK

| Compound | remaining activity at 1 µM (FGFR4) | % enzyme activity (CK1g1) | remaining activity at 1 µM (NIM1) | remaining activity at 1 µM (ERBB4/HER4) | remaining activity at 1 µM (ROCK1) | % enzyme activity (EPHB3) | remaining activity at 1 µM (EPHB1) | remaining activity at 1 µM (PRKX) | % enzyme activity (MYO3A) |
| --- | --- | --- | --- | --- | --- | --- | --- | --- | --- |
| COc1cc(-c2cncc(-c3ccc(N4CCN(C)CC4)cc3)c2C)cc(F)c1C(N)=O [Compound 26a, 2-Fluoro-6-methoxy-4-(4-methyl-5-(4-(4-methylpiperazin-1-yl)phenyl)pyridin-3-yl)benzamide] | 98.2% | 55.41% | 96.6% | 99.5% | 95% | 95.16% | 95.5% | 99.9% | 81.86% |
| COc1cc(-c2cncc(-c3ccc(N4C[C@@H](C)N(C)[C@@H](C)C4)cc3)c2C)cc(F)c1C(N)=O [Compound 26c, 2-Fluoro-6-methoxy-4-(4-methyl-5-(4-((3R,5S)-3,4,5-trimethylpiperazin-1-yl)phenyl)pyridin-3-yl)benzamide] | 99.6% | 69.61% | 98.2% | 94.9% | 94.7% | 96.08% | 92.6% | 91.3% | 94.68% |
